Source: publication PMC10258794, “To Fold or Not to Fold: Diastereomeric Optimization of an α-Helical Antimicrobial Peptide” (Journal of Medicinal Chemistry, 2023)
In brackets after ≈: the same amount, converted by molar mass. Where two headings read alike, the source gives them in different places. Non-standard residues stand in square brackets, D forms with d. Residues, ends and D or L forms follow the SMILES beside them.

Columns and labels:
[1] = system: human red blood cells; test: Hemolysis assay (MHC)
Experimental: To determine the MHC stock solutions, 8 mg/mL peptide in PBS (pH 7.4) was prepared, and 50 μL was diluted serially by l/2 in 50 μL of PBS (pH 7.4) in a 96-well plate (Costar or Nunc, polystyrene, untreated). […] Plasma was discarded, and the pellet was re-suspended in a 15 mL Falcon tube in 5 mL of PBS. The washing was repeated three times, and the remaining pellet was re-suspended in 10 mL of PBS. The hRBC suspension (50 μL) was added to each well, and the plate was incubated at room temperature for 4 h. MHC end points were determined by visual determination of the wells after the incubation period. Controls on each plate included a blank medium control (50 μL PBS + 50 μL of hRBCs suspension) and a hemolytic activity control (mQ-deionized water 50 μL + 50 μL hRBC suspension).

[2] = EYPG vesicle leakage assay; assay type: biochemical; conditions: 10 μg/mL of compound; 10 mM TRIS, 107 mM NaCl, pH 7.4
Experimental: (§1) 5(6)-carboxyfluorescein (CF) was purchased from Sigma. EYPC, EYPG, and a Mini-Extruder were purchased from Avanti Polar Lipids. Egg PC or Egg PG thin lipid layers were prepared by evaporating a solution of 100 mg of EYPC or EYPG in 4 mL of MeOH/CHCl3 (1:1) on a rotary evaporator at room temperature and then dried in vacuo overnight. […] Extravesicular components were removed by gel filtration (Sephadex G-50) with 10 mM TRIS, 107 mM NaCl, pH 7.4 buffer. Final conditions: ∼2.5 mM PC or PG; inside: 50 mM CF, 10 mM TRIS, 10 mM NaCl, pH 7.4 buffer; outside: 10 mM TRIS, 107 mM NaCl, pH 7.4. […] The CF efflux was monitored at λem 517 nm (λex 492 nm) as a function of time after addition of the desired volume of peptide from 2 mg/mL stock in mQ water at t = 45 s, 10 and 50 μg/mL were monitored for both EYPC and EYPG. […] Fluorescence intensities were then normalized to the maximal emission intensity using I(t) = (It – I0)/(I∞ – I0) where I0 = It at peptide addition, I∞ = It at saturation of lysis.

[3] = EYPC vesicle leakage assay; assay type: biochemical; conditions: 10 μg/mL of compound; 10 mM TRIS, 107 mM NaCl, pH 7.4
Experimental: as §1

[4] = CD spectroscopy, α-helix content; assay type: physicochemical; conditions: 5 mM DPC in 7 mM PB buffer pH 7.4, Dichroweb Contin LL set 4
Experimental: CD experiments were measured on a Jasco J-715 spectropolarimeter. All the experiments were performed using Hellma Suprasil 110-QS 0.1 cm cuvettes. For each peptide, the measurements were performed in phosphate buffer (PB, pH = 7.4, 7 mM), 10% TFE, 20% TFE, 5 mM DPC. The buffer was degassed for 10 min under high vacuum before each set of experiments. The concentration of the peptides was 0.100 mg/mL, and each sample was measured in one accumulation. The scan rate was 20 nm/min, pitch was 0.5 nm, response was 16 s, and bandwidth was 1.0 nm. The nitrogen flow was kept >8 L/min. After each measurement, the cuvettes were washed successively with milli-Q H2O and PB (pH 7.4). The baseline was recorded under the same conditions and subtracted manually. Primary CD spectra were analyzed using DichroWeb[58] and Contin-LL method (set 4).[74]

[5] = system: A. baumannii ATCC19606
Method in brief: (§2)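 Twofold dilution series vs. bacteria (OD600 0.022 dilution, about 5 × 10^5 CFU) in Mueller–Hinton pH 7.4. Incubated 37 °C, 16–20 h, static. MTT added; visual yellow endpoint = MIC.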

[6] = system: E. coli W3110
Method in brief: as §2

[7] = system: K. pneumoniae NCTC418
Method in brief: as §2

[8] = system: P. aeruginosa PAO1
Method in brief: as §2

[9] = system: S. aureus COL MRSA; conditions: for MIC S. aureus COL MRSA: MH broth pH 7.4, 16–20 h, 37 °C; for MIC S. aureus COL: supplementary CSV, ranges of Table 1 given as one number
Method in brief: as §2

[10] = system: Burkolderia cenocepacia; test: microbe, parasite or virus in culture; conditions: MDR strain; MH broth pH 7.4, 16–20 h, 37 °C
[11] = system: Enterobacter cloacae; test: microbe, parasite or virus in culture; conditions: pH 7.4
Method in brief: as §2

[12] = system: P. aeruginosa PA14; test: microbe, parasite or virus in culture
Method in brief: as §2

[13] = system: P. aeruginosa ZEM-1A; test: microbe, parasite or virus in culture; conditions: pH 7.4
Method in brief: as §2

[14] = system: PA14 2P4 (pmrB); test: microbe, parasite or virus in culture; conditions: supplementary CSV
Method in brief: as §2

[15] = system: PA14 4.13 (phoQ); test: microbe, parasite or virus in culture; conditions: supplementary CSV
Method in brief: as §2

[16] = system: PA14 4.18 (pmrB); test: microbe, parasite or virus in culture; conditions: supplementary CSV
Method in brief: as §2

[17] = system: P. aeruginosa ZEM9A; test: microbe, parasite or virus in culture; assay type: cell-based, Pseudomonas aeruginosa; conditions: pH 7.4
Experimental: (§3) Antimicrobial activity was determined for all peptides on E. coli W3110, P. aeruginosa PAO1, A. baumannii ATCC19606, K. pneumoniae NCTC418, and methicillin-resistant S. aureus COL and for selected peptides on P. aeruginosa PA14 and the polymyxin B-resistant derivatives PA14 4.13, PA14 4.18, and PA14 2P4 as well as the clinical isolates ZEM-1A and ZEM9A, K. pneumoniae OXA-48, Enterobacter cloacae, Stenotrophomonas maltophilia, B. cenocepacia, and Staphylococus epidermis. To determine the MIC, the broth microdilution method was used.[75] A single bacterial colony was grown in LB medium overnight at 37 °C and 180 rpm shaking. The compounds were prepared as stock solutions of 2 mg/mL in sterilized milliQ deionized water, added to the first well of 96-well sterile, polypropylene round-bottom microtiter plates (TPP, untreated, Corning Incorporated, Kennebunk, USA), and diluted serially by 1/2. […] The bacterial inoculum was prepared by measuring the absorbance of the overnight culture, which was diluted to concentration of the bacteria was quantified by measuring absorbance at 600 nm and diluted to an OD600 of 0.022 in MH medium pH 7.4 (Sigma-Aldrich, Buchs, Switzerland). The sample solutions (150 μL) were mixed with 4 μL of diluted bacterial suspension with a final inoculation of about 5 × 10^5 CFU. For each test, two columns of the plate were kept for sterility control (MH medium only) and growth control (MH medium with bacterial inoculum, no compound). […] The plates were incubated at 37 °C for 16–20 h under static conditions. 15 μL of 3-(4,5-dimethylthiazol-2-yl)-2,5-diphenyltetrazolium bromide (MTT)[76] (1 mg/mL in sterilized milliQ deionized water) was added to each well, and the plates were incubated at room temperature until MTT staining was completed. The MIC was defined as the lowest concentration of the dendrimer that inhibits the visible growth of the tested bacteria (yellow) with the unaided eye.

[18] = system: K. pneumoniae Oxa-48; test: MIC broth microdilution, K. pneumoniae Oxa-48; assay type: cell-based, Klebsiella pneumoniae; conditions: MDR strain; MH broth pH 7.4, 16–20 h, 37 °C
Experimental: as §3

[19] = system: Stenotrophomonas maltophilia; test: microbe, parasite or virus in culture; assay type: cell-based; conditions: pH 7.4
Experimental: as §3

[20] = system: Staphylococcus epidermis; test: MIC broth microdilution, Staphylococcus epidermis; assay type: cell-based; conditions: pH 7.4
Experimental: as §3

[21] = system: HEK293 cells; test: Alamar blue cytotoxicity, HEK293; assay type: cell-based, human; conditions: 24 h, mean ± SD, n = 3, read-out: Toxicity on HEK293 cells
Experimental: The A549 human lung adenocarcinoma cells are derived from a patient and were kindly given to us by Dr. Georgia Konstatinidou (Pharmacology Institute, Bern University). HEK293T cells were obtained from ATCC (CRL-11268). A549 and HEK293 were cultured in an incubator at 37 °C with 5% CO2 in RPMI-1640 (Gibco) and DMEM (Gibco) containing 10% fetal bovine serum (Thermo Fisher), 100 I.U./mL penicillin, and 100 μg/mL streptomycin (Gibco).
The viability of the cells was assessed with an AlamarBlue assay (ThermoFisher). Cells were seeded into 96-well plates, 4000 cells/well (HEK293) and 8000 cells/well (A549), the day before the experiment. Cells were then treated with the increasing concentration of the compound and incubated for 24 h at 37 °C in the presence of 5% CO2. The next day, the medium was removed and replaced by a 10% AlamarBlue solution in full growth medium (DMEM or RPMI-1640). The cells were incubated for 3–5 h at 37 °C with 5% CO2 in a humidified atmosphere. The fluorescence was then measured on a Tecan Infinite M1000 Pro plate reader at λex 560 nm and λem 590 nm. The value was normalized according to the untreated cells.

[22] = system: Pseudomonas aeruginosa, Klebsiella pneumoniae, Acinetobacter baumannii, Escherichia coli, and methicillin-resistant Staphylococcus aureus; conditions: summary of Table 1
Method in brief: as §2

[23] = system: S. aureus Newman
[24] = MH broth pH 7.4, 16–20 h, 37 °C
[25] = supplementary CSV, ranges of Table 1 given as one number

In the case of `CC(C)C[C@H](NC(=O)[C@H](CC(C)C)NC(=O)[C@H](CC(C)C)NC(=O)[C@@H](CCCNC(=N)N)NC(=O)[C@H](CC(C)C)NC(=O)[C@H](CC(C)C)NC(=O)[C@@H](CCCNC(=N)N)NC(=O)[C@H](CC(C)C)NC(=O)[C@H](CC(C)C)NC(=O)[C@@H](CCCNC(=N)N)NC(=O)[C@H](N)CCCNC(=N)N)C(N)=O` [HP33, rrLLrLLrLLL] (H-[dR][dR]LL[dR]LL[dR]LLL-NH2), the MHC ([1]; human red blood cells in PBS pH 7.4, 4 h, room temperature) is reported as 125 µg/mL, the “MHC” value ([1]; supplementary CSV, human red blood cells) is reported as 125 µg/mL and the “EYPG vesicle leakage (%)” value [2] is reported as 85%. For the same molecule, the “EYPC vesicle leakage (%)” value [3] was 56%, the “α-helix content (%)” value [4] was 63% and the “MIC A. baumannii ATCC19606” value [5, 24] was 4 µg/mL (≈ 2.79 µM). The “MIC E. coli W3110” value [6, 24] was 4 to 8 µg/mL, the “MIC E. coli W3110” value [6, 25] was 6 µg/mL (≈ 4.18 µM) and the “MIC K. pneumoniae NCTC418” value [7, 24] was 4 to 8 µg/mL. For the same molecule, the “MIC K. pneumoniae NCTC418” value [7, 25] was 6 µg/mL (≈ 4.18 µM), the “MIC P. aeruginosa PAO1” value [8, 24] was 4 to 8 µg/mL and the “MIC P. aeruginosa PAO1” value [8, 25] was 6 µg/mL (≈ 4.18 µM). For the same molecule, the “MIC S. aureus COL MRSA” value [9] was 2 to 4 µg/mL and the “MIC S. aureus COL” value [9] was 3 µg/mL (≈ 2.09 µM).
For `CC(C)C[C@H](NC(=O)[C@H](CC(C)C)NC(=O)[C@H](CC(C)C)NC(=O)[C@H](CCCCN)NC(=O)[C@@H](CC(C)C)NC(=O)[C@H](CC(C)C)NC(=O)[C@H](CCCCN)NC(=O)[C@@H](CC(C)C)NC(=O)[C@@H](CC(C)C)NC(=O)[C@@H](CCCCN)NC(=O)[C@@H](N)CCCCN)C(N)=O` [HP11, KkllKLlKLLL], the “MIC Burkolderia cenocepacia” value [10] was >64 µg/mL, the “MIC Enterobacter cloacae” value [11] was 4 µg/mL (≈ 3.03 µM) and the “MIC PA14” value [12, 24] was 1 µg/mL (≈ 0.757 µM). The “MIC P. aeruginosa PA14” value ([12]; supplementary CSV) was 1 µg/mL (≈ 0.757 µM), the “MIC ZEM-1A” value [13] was 2 µg/mL (≈ 1.51 µM) and the “MIC P. aeruginosaPA14 2P4” value [14] was 16 µg/mL (≈ 12.1 µM). The “MIC P. aeruginosa PA14 4.13” value [15] was 2 µg/mL (≈ 1.51 µM), the “MIC P. aeruginosa PA14 4.18” value [16] was 8 µg/mL (≈ 6.05 µM) and the “MIC ZEM9A” value [17] was 8 µg/mL (≈ 6.05 µM). For the same molecule, the “MIC K. pneumoniae Oxa-48” value [18] was 4 µg/mL (≈ 3.03 µM), the “MIC Stenotrophomonas maltophilia” value [19] was 4 µg/mL (≈ 3.03 µM) and the “MIC Staphylococcus epidermis” value [20] was 4 µg/mL (≈ 3.03 µM). The IC50 [21] was 64.8 ± 4.3 µM, the “MIC A. baumannii ATCC19606” value [5, 24] was 2 µg/mL (≈ 1.51 µM) and the “MIC A. baumannii ATCC19606” value [5, 25] was 2 µg/mL (≈ 1.51 µM). For the same molecule, the “MIC E. coli W3110” value [6, 24] was 2 µg/mL (≈ 1.51 µM), the “MIC K. pneumoniae NCTC418” value [7, 24] was 4 to 8 µg/mL and the “MIC K. pneumoniae NCTC418” value [7, 25] was 6 µg/mL (≈ 4.54 µM). For the same molecule, the “MIC P. aeruginosa PAO1” value [8, 24] was 2 to 4 µg/mL, the “MIC P. aeruginosa PAO1” value [8, 25] was 3 µg/mL (≈ 2.27 µM) and the “MIC, span over the five bacterial strains” value [22] was 2 to 8 µg/mL. For the same molecule, the “MIC S. aureus COL MRSA” value [9] was 2 µg/mL (≈ 1.51 µM), the “MIC S. aureus COL” value [9] was 2 µg/mL (≈ 1.51 µM) and the “MIC S. aureus Newman” value [23, 24] was 2 µg/mL (≈ 1.51 µM). For the same molecule, the “MIC S. aureus Newmann” value ([23]; supplementary CSV) was 2 µg/mL (≈ 1.51 µM).
